Earlier results on four molecules are cited in US20210195917A1, “COMPOSITIONS AND RELATED METHODS FOR AGRICULTURE” (priority 2017, published 2021).

The test system of one series is bees. The conditions noted are these: in vivo.
The subject of the next series is target bacterial strains. The conditions noted are these: against its target bacterial strains.
Series [1] concerns gram-negative and gram-positive bacteria as well as fungi.

For the molecule `COP(=S)(OC)Oc1ccc([N+](=O)[O-])c(C)c1` [fenitrothion], the toxicity to bees result with bees is “toxic to bees”. Take botrycidin AJ1316: the antifungal activities entry in the series with fungi is listed as “antifungal activities”. For the molecule nisin, the “concentration showing antimicrobial activity” value in the series with target bacterial strains is “single-digit nanomolar”.

B1: NCR335: cationic NCR peptide of Medicago truncatula, SEQ ID NO: 65 (peptide, listed as Medicago truncatula)
chain: MQIGKNMVETPKLDYVIIFFFLYFFFRQMIILRLNTTFRPLNFKMLRFWGQNRNIMKHRGQKVHFSLILSDCKTNKDCPKLRRANVRCRKSYCVPI
For the molecule B1, in series [1], the antimicrobial activities result is reported as “effective”.
